Data from PubChem BioAssay AID1963448 (Molecular Pharmacology Branch, DTP, NCI, 2024).

System: 616215-338-R-J1-PDC complex spheroid growth, % test/control
Test: Anticancer human tumor 616215-338-R-J1-PDC patient-derived colon adenocarcinoma cell line growth inhibition [Asc]
Conditions: for IC50: curve of first compound; for viability, T/C: stronger effect = lower value; active = viability on the fitted dose curve at most 10% of control; inactive = the rest
How it was run: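 Tumor cells were grown as multicellular spheroids with stromal HUVEC and mesenchymal stem cells and treated singly or in combination. Concentrations fell in half-log steps from the clinical Cmax, or from 10 microM where none was known.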

[1] = second compound 0.1 µM, first compound 0.0316 µM
[2] = second compound 0.1 µM, first compound 0.1 µM
[3] = second compound 0.1 µM, first compound 0.316 µM
[4] = second compound 0.1 µM, first compound 1 µM
[5] = second compound 0.316 µM, first compound 0.0316 µM
[6] = second compound 0.316 µM, first compound 0.1 µM
[7] = second compound 0.316 µM, first compound 0.316 µM
[8] = second compound 0.316 µM, first compound 1 µM
[9] = second compound 1 µM, first compound 0.0316 µM
[10] = second compound 1 µM, first compound 0.1 µM
[11] = second compound 1 µM, first compound 0.316 µM
[12] = second compound 1 µM, first compound 1 µM
[13] = second compound 3.16 µM, first compound 0.0316 µM
[14] = second compound 3.16 µM, first compound 0.1 µM
[15] = second compound 3.16 µM, first compound 0.316 µM
[16] = second compound 3.16 µM, first compound 1 µM
[17] = second compound 10 µM, first compound 0.0316 µM
[18] = second compound 10 µM, first compound 0.1 µM
[19] = second compound 10 µM, first compound 0.316 µM
[20] = second compound 10 µM, first compound 1 µM
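Note: spheroids exposed to agents for seven days before readout.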
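Throughout, for viability, T/C: 100% = DMSO vehicle control viability.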

C#Cc1c(F)ccc2cc(O)cc(-c3ncc4c(N5CC6CCC(C5)N6)nc(OCC56CCCN5CC(F)C6)nc4c3F)c12 (stereo not given) + Cc1c(S(C)(=O)=O)c(-c2cc(F)cc(N3CCN(c4ccc(NS(=O)(=O)c5ccc(NC(CCN6CCC(C(=O)OCCCP(=O)(O)O)CC6)CSc6ccccc6)c(S(=O)(=O)C(F)(F)F)c5)cc4)CC3)c2)c(-c2ccc(Cl)cc2)n1C(C)C
> 10000 nM: IC50 (second compound 0.1 µM) | IC50 (second compound 0.316 µM)
< 31.6 nM: IC50 (second compound 3.16 µM) | IC50 (second compound 10 µM)
inactive: viability, T/C [1] 92.2% | viability, T/C [2] 88.2% | viability, T/C [3] 93.3% | viability, T/C [4] 98.2% | viability, T/C (second compound 0.1 µM, first compound 3.16 µM) 87.5% | viability, T/C (second compound 0.1 µM, first compound 10 µM) 56.6% | viability, T/C [5] 96.6% | viability, T/C [6] 91.9% | viability, T/C [7] 88.8% | viability, T/C [8] 97.4% | viability, T/C (second compound 0.316 µM, first compound 3.16 µM) 72.1% | viability, T/C (second compound 0.316 µM, first compound 10 µM) 52% | viability, T/C [9] 68.8% | viability, T/C [10] 70% | viability, T/C [11] 66.8% | viability, T/C [12] 68.2% | viability, T/C (second compound 1 µM, first compound 3.16 µM) 61.1% | viability, T/C (second compound 1 µM, first compound 10 µM) 42.8% | viability, T/C [13] 39.5% | viability, T/C [14] 38.8% | viability, T/C [15] 40.3% | viability, T/C [16] 39.6% | viability, T/C (second compound 3.16 µM, first compound 3.16 µM) 34.1% | viability, T/C (second compound 3.16 µM, first compound 10 µM) 9.96% | viability, T/C [17] 29.7% | viability, T/C [18] 25.5% | viability, T/C [19] 29.8% | viability, T/C [20] 21.8% | viability, T/C (second compound 10 µM, first compound 3.16 µM) 10.8%
active: viability, T/C (second compound 10 µM, first compound 10 µM) 0.92%
6410 nM: IC50 (second compound 1 µM)

CNC(C)C(=O)NC1CN(S(=O)(=O)c2cccc(S(=O)(=O)N3CCC4CCC(C(=O)NC(c5ccccc5)c5ccccc5)N4C(=O)C(NC(=O)C(C)NC)C3)c2)CCC2CCC(C(=O)NC(c3ccccc3)c3ccccc3)N2C1=O (stereo not given) + Cc1c(S(C)(=O)=O)c(-c2cc(F)cc(N3CCN(c4ccc(NS(=O)(=O)c5ccc(NC(CCN6CCC(C(=O)OCCCP(=O)(O)O)CC6)CSc6ccccc6)c(S(=O)(=O)C(F)(F)F)c5)cc4)CC3)c2)c(-c2ccc(Cl)cc2)n1C(C)C
> 1000 nM: IC50 (second compound 0.1 µM) | IC50 (second compound 0.316 µM) | IC50 (second compound 1 µM)
inactive: viability, T/C (second compound 0.1 µM, first compound 0.00316 µM) 94% | viability, T/C (second compound 0.1 µM, first compound 0.01 µM) 99.3% | viability, T/C [1] 92.2% | viability, T/C [2] 94.8% | viability, T/C [3] 100% | viability, T/C [4] 97.5% | viability, T/C (second compound 0.316 µM, first compound 0.00316 µM) 96.8% | viability, T/C (second compound 0.316 µM, first compound 0.01 µM) 97.4% | viability, T/C [5] 92% | viability, T/C [6] 97% | viability, T/C [7] 87.9% | viability, T/C [8] 94.7% | viability, T/C (second compound 1 µM, first compound 0.00316 µM) 73.1% | viability, T/C (second compound 1 µM, first compound 0.01 µM) 76% | viability, T/C [9] 73.2% | viability, T/C [10] 76% | viability, T/C [11] 69.6% | viability, T/C [12] 68.7% | viability, T/C (second compound 3.16 µM, first compound 0.00316 µM) 45.5% | viability, T/C (second compound 3.16 µM, first compound 0.01 µM) 40% | viability, T/C [13] 40.1% | viability, T/C [14] 39.5% | viability, T/C [15] 36.2% | viability, T/C [16] 28.6% | viability, T/C (second compound 10 µM, first compound 0.00316 µM) 26.5% | viability, T/C (second compound 10 µM, first compound 0.01 µM) 23.9% | viability, T/C [17] 27.9% | viability, T/C [18] 26.4% | viability, T/C [19] 22.4% | viability, T/C [20] 19.1%
< 3.16 nM: IC50 (second compound 3.16 µM) | IC50 (second compound 10 µM)

Cc1nc(N2CCC3(CC2)COC(C)C3N)c(CO)nc1Sc1ccnc(N)c1Cl (stereo not given) + Cc1c(S(C)(=O)=O)c(-c2cc(F)cc(N3CCN(c4ccc(NS(=O)(=O)c5ccc(NC(CCN6CCC(C(=O)OCCCP(=O)(O)O)CC6)CSc6ccccc6)c(S(=O)(=O)C(F)(F)F)c5)cc4)CC3)c2)c(-c2ccc(Cl)cc2)n1C(C)C
< 9.49 nM: IC50 (second compound 3.16 µM) | IC50 (second compound 10 µM)
active: viability, T/C (second compound 10 µM, first compound 3 µM) 6.63%
> 3000 nM: IC50 (second compound 0.1 µM) | IC50 (second compound 0.316 µM) | IC50 (second compound 1 µM)
inactive: viability, T/C (second compound 0.1 µM, first compound 0.00949 µM) 97.8% | viability, T/C (second compound 0.1 µM, first compound 0.03 µM) 102% | viability, T/C (second compound 0.1 µM, first compound 0.0949 µM) 100% | viability, T/C (second compound 0.1 µM, first compound 0.3 µM) 95.9% | viability, T/C (second compound 0.1 µM, first compound 0.949 µM) 84.5% | viability, T/C (second compound 0.1 µM, first compound 3 µM) 76.7% | viability, T/C (second compound 0.316 µM, first compound 0.00949 µM) 96.7% | viability, T/C (second compound 0.316 µM, first compound 0.03 µM) 92.8% | viability, T/C (second compound 0.316 µM, first compound 0.0949 µM) 94.5% | viability, T/C (second compound 0.316 µM, first compound 0.3 µM) 94.9% | viability, T/C (second compound 0.316 µM, first compound 0.949 µM) 76.6% | viability, T/C (second compound 0.316 µM, first compound 3 µM) 71.3% | viability, T/C (second compound 1 µM, first compound 0.00949 µM) 68% | viability, T/C (second compound 1 µM, first compound 0.03 µM) 67.8% | viability, T/C (second compound 1 µM, first compound 0.0949 µM) 68.9% | viability, T/C (second compound 1 µM, first compound 0.3 µM) 66.7% | viability, T/C (second compound 1 µM, first compound 0.949 µM) 61.7% | viability, T/C (second compound 1 µM, first compound 3 µM) 55.6% | viability, T/C (second compound 3.16 µM, first compound 0.00949 µM) 38.2% | viability, T/C (second compound 3.16 µM, first compound 0.03 µM) 38.4% | viability, T/C (second compound 3.16 µM, first compound 0.0949 µM) 34.2% | viability, T/C (second compound 3.16 µM, first compound 0.3 µM) 36.8% | viability, T/C (second compound 3.16 µM, first compound 0.949 µM) 25.9% | viability, T/C (second compound 3.16 µM, first compound 3 µM) 21.9% | viability, T/C (second compound 10 µM, first compound 0.00949 µM) 29.4% | viability, T/C (second compound 10 µM, first compound 0.03 µM) 25.6% | viability, T/C (second compound 10 µM, first compound 0.0949 µM) 30.2% | viability, T/C (second compound 10 µM, first compound 0.3 µM) 21.1% | viability, T/C (second compound 10 µM, first compound 0.949 µM) 9.17%
